# The source made the active and inactive calls. The calls are words filed in the database; no cut-off is given here.
# What was measured:
# Klebsiella pneumoniae [1] = experiment: Induction of morphological changes in Klebsiella pneumoniae assessed as cell contraction at 2 times MIC measured after 30 mins by SEM analysis; format: functional, organism-based
# Klebsiella pneumoniae [2] = experiment: Induction of morphological changes in Klebsiella pneumoniae assessed as cell aggregation at 2 times MIC measured after 30 mins by SEM analysis; format: functional, organism-based
# Klebsiella pneumoniae [3] = experiment: Induction of morphological changes in Klebsiella pneumoniae assessed as cell adhesion at 2 times MIC measured after 30 mins by SEM analysis; format: functional, organism-based
# Klebsiella pneumoniae [4] = experiment: Induction of morphological changes in Klebsiella pneumoniae assessed as cell contraction at 2 times MIC measured after 120 mins by SEM analysis; format: functional, organism-based
# Klebsiella pneumoniae [5] = experiment: Induction of morphological changes in Klebsiella pneumoniae assessed as cell aggregation at 2 times MIC measured after 120 mins by SEM analysis; format: functional, organism-based
# Klebsiella pneumoniae [6] = experiment: Induction of morphological changes in Klebsiella pneumoniae assessed as cell adhesion at 2 times MIC measured after 120 mins by SEM analysis; format: functional, organism-based
# Escherichia coli [7] = experiment: Induction of cell membrane disruption in Escherichia coli assessed as PI uptake at 2 times MIC measured after 120 mins by PI staining based flow cytometry analysis (Rvb =<10 %); format: functional; details: 2 h
# Escherichia coli [8] = experiment: Induction of cell membrane disruption in Escherichia coli assessed as PI uptake at 4 times MIC measured after 120 mins by PI staining based flow cytometry analysis; format: functional, organism-based
# Cell membrane [9] = experiment: Induction of outer membrane permeabilization in Escherichia coli assessed as increase in fluorescence intensity measured for 10 mins by fluorescence based NPN uptake assay
# Cell membrane [10] = experiment: Induction of outer membrane permeabilization in Escherichia coli assessed as increase in fluorescence intensity at 0.5 times MIC measured for 10 mins by fluorescence based NPN uptake assay
# Cell membrane [11] = experiment: Induction of inner membrane permeabilization in Escherichia coli at 0.5 to 4 times MIC measured for 135 mins by absorbance based analysis
# Cell membrane [12] = experiment: Induction of cytoplasmic membrane depolarization in Staphylococcus aureus assessed as increase in fluorescence intensity at 0.5 to 4 times MIC measured for 10 mins by DiSC3-5 dye based fluorescence assay; format: subcellular
# Lipopolysaccharide (LPS) = experiment: Binding affinity to LPS (unknown origin) assessed as reduction in bacterial mortality at 2 times MIC preincubated with LPS for 1 hr followed by bacteria addition for 24 hrs by spectrophotometric analysis
# Staphylococcus aureus [13] = experiment: Antibacterial activity against Staphylococcus aureus 25923 at sub-MIC concentration measured after 15 passages; format: functional, organism-based
# Staphylococcus aureus [14] = experiment: Antibacterial activity against Staphylococcus aureus 25923 at sub-MIC concentration measured after 15 passages in presence of rifampin; format: functional, organism-based
# Escherichia coli [15] = experiment: Antibacterial activity against Escherichia coli 25922 at sub-MIC concentration measured after 15 passages in presence of rifampin; format: functional, organism-based
# Klebsiella pneumoniae [16] = experiment: Antibacterial activity against Klebsiella pneumoniae ATCC 700603 infected in male BALB/c mouse lung infection model assessed as reduction in number of inflammatory cells at 5 mg/kg, ip measured after 6 to 36 hrs; format: functional, organism-based; details: time 6-36 hrs
# Staphylococcus aureus [17] = experiment: Antibacterial activity against methicillin resistant Staphylococcus aureus infected in male BALB/c mouse model of skin wound infection assessed as reduction in wound area at 2 mg/kg, ip measured after 6 to 36 hrs postinfection; format: functional, organism-based; details: time 6-36 hrs
# Acinetobacter baumannii [18] = experiment: Antibacterial activity against Acinetobacter baumannii ATCC 19606 assessed as reduction in bacterial growth incubated for 18 to 24 hrs by broth microdilution method; format: functional; details: time 18-24 hrs
# Klebsiella pneumoniae [19] = experiment: Antibacterial activity against Klebsiella pneumoniae ATCC 700603 assessed as reduction in bacterial growth incubated for 18 to 24 hrs by broth microdilution method; format: functional; details: time 18-24 hrs
# Escherichia coli [20] = experiment: Antibacterial activity against Escherichia coli ATCC 25922 assessed as reduction in bacterial growth incubated for 18 to 24 hrs by broth microdilution method; format: functional; details: time 18-24 hrs
# Pseudomonas aeruginosa [21] = experiment: Antibacterial activity against Pseudomonas aeruginosa ATCC 27853 assessed as reduction in bacterial growth incubated for 18 to 24 hrs by broth microdilution method; format: functional; details: time 18-24 hrs
# Staphylococcus aureus [22] = experiment: Antibacterial activity against methicillin-resistant Staphylococcus aureus ATCC 33591 assessed as reduction in bacterial growth incubated for 18 to 24 hrs by broth microdilution method; format: functional; details: time 18-24 hrs
# Staphylococcus aureus [23] = experiment: Antibacterial activity against methicillin-resistant Staphylococcus aureus 75 assessed as reduction in bacterial growth incubated for 18 to 24 hrs by broth microdilution method; format: functional; details: time 18-24 hrs
# Staphylococcus aureus [24] = experiment: Antibacterial activity against Staphylococcus aureus 113 assessed as reduction in bacterial growth incubated for 18 to 24 hrs by broth microdilution method; format: functional; details: time 18-24 hrs
# Staphylococcus aureus [25] = experiment: Antibacterial activity against Staphylococcus aureus 125 assessed as reduction in bacterial growth incubated for 18 to 24 hrs by broth microdilution method; format: functional; details: time 18-24 hrs
# Staphylococcus aureus [26] = experiment: Antibacterial activity against Staphylococcus aureus 794 assessed as reduction in bacterial growth incubated for 18 to 24 hrs by broth microdilution method; format: functional; details: time 18-24 hrs
# Enterococcus faecalis = experiment: Antibacterial activity against Enterococcus faecalis ATCC 29212 assessed as reduction in bacterial growth incubated for 18 to 24 hrs by broth microdilution method; format: functional; details: time 18-24 hrs
# [27] = tested on: Staphylococcus epidermidis; experiment: Antibacterial activity against Staphylococcus epidermidis ATCC 12228 assessed as reduction in bacterial growth incubated for 18 to 24 hrs by broth microdilution method; format: functional; details: time 18-24 hrs
# Bacillus subtilis = experiment: Antibacterial activity against Bacillus subtilis ATCC 23857 assessed as reduction in bacterial growth incubated for 18 to 24 hrs by broth microdilution method; format: functional; details: time 18-24 hrs
# Staphylococcus aureus [28] = experiment: Antibacterial activity against Staphylococcus aureus ATCC 25923 assessed as reduction in bacterial growth incubated for 18 to 24 hrs by broth microdilution method; format: functional; details: time 18-24 hrs
# Acinetobacter baumannii [29] = experiment: Antibacterial activity against Acinetobacter baumannii 5444 assessed as reduction in bacterial growth incubated for 18 to 24 hrs by broth microdilution method; format: functional; details: time 18-24 hrs
# Acinetobacter baumannii [30] = experiment: Antibacterial activity against Acinetobacter baumannii 92359 assessed as reduction in bacterial growth incubated for 18 to 24 hrs by broth microdilution method; format: functional; details: time 18-24 hrs
# Escherichia coli [31] = experiment: Antibacterial activity against Escherichia coli 850 assessed as reduction in bacterial growth incubated for 18 to 24 hrs by broth microdilution method; format: functional; details: time 18-24 hrs
# Escherichia coli [32] = experiment: Antibacterial activity against Escherichia coli 780 assessed as reduction in bacterial growth incubated for 18 to 24 hrs by broth microdilution method; format: functional; details: time 18-24 hrs
# Pseudomonas aeruginosa [33] = experiment: Antibacterial activity against Pseudomonas aeruginosa 124 assessed as reduction in bacterial growth incubated for 18 to 24 hrs by broth microdilution method; format: functional; details: time 18-24 hrs
# Pseudomonas aeruginosa [34] = experiment: Antibacterial activity against Pseudomonas aeruginosa 6434N assessed as reduction in bacterial growth incubated for 18 to 24 hrs by broth microdilution method; format: functional; details: time 18-24 hrs
# Staphylococcus aureus [35] = experiment: Drug resistance, ratio of MIC for Staphylococcus aureus 25923 after 4 passages exposure to MIC for Staphylococcus aureus 25923 during first exposure; format: functional
# Staphylococcus aureus [36] = experiment: Drug resistance, ratio of MIC for Staphylococcus aureus 25923 after 15 passages exposure to MIC for Staphylococcus aureus 25923 during first exposure; format: functional
# Escherichia coli [37] = experiment: Drug resistance, ratio of MIC for Escherichia coli 25922 after 7 passages exposure to MIC for Escherichia coli 25922 during first exposure; format: functional
# Escherichia coli [38] = experiment: Drug resistance, ratio of MIC for Escherichia coli 25922 after 15 passages exposure to MIC for Escherichia coli 25922 during first exposure; format: functional
smiles,measurement,setting,value
CC(C)CCCCC(=O)N[C@@H](CCN)C(=O)N[C@H](C(=O)N[C@@H](CCN)C(=O)N[C@H]1CCNC(=O)[C@H]([C@@H](C)O)NC(=O)[C@H](CCN)NC(=O)[C@H](CCN)NC(=O)[C@H](CC(C)C)NC(=O)[C@@H](Cc2ccccc2)NC(=O)[C@@H](CCN)NC1=O)[C@@H](C)O.CC[C@H](C)CCCCC(=O)N[C@@H](CCN)C(=O)N[C@H](C(=O)N[C@@H](CCN)C(=O)N[C@H]1CCNC(=O)[C@H]([C@@H](C)O)NC(=O)[C@H](CCN)NC(=O)[C@H](CCN)NC(=O)[C@H](CC(C)C)NC(=O)[C@@H](Cc2ccccc2)NC(=O)[C@@H](CCN)NC1=O)[C@@H](C)O,Activity,Klebsiella pneumoniae [1],Active
same,Activity,Klebsiella pneumoniae [2],Active
same,Activity,Klebsiella pneumoniae [3],Active
same,Activity,Klebsiella pneumoniae [4],Active
same,Activity,Klebsiella pneumoniae [5],Active
same,Activity,Klebsiella pneumoniae [6],Active
same,Activity,Escherichia coli [7],>20%
same,Activity,Escherichia coli [8],inactive
same,Activity,Cell membrane [9],Dose-dependent-effect
same,Activity,Cell membrane [10],Active; Compound Showed Slightly Inferior Activity Than Compound D8
same,Activity,Cell membrane [11],Active; Compound Showed Lower Efficacy Than Positive Control 0.1% Tritionx 100
same,Activity,Cell membrane [12],Weak_effect
same,Activity,Lipopolysaccharide (LPS),Active
same,Activity,Staphylococcus aureus [13],inactive
same,Activity,Staphylococcus aureus [14],Active
same,Activity,Escherichia coli [15],Active
same,Activity,Klebsiella pneumoniae [16],inactive
same,Activity,Staphylococcus aureus [17],Active
CO[C@H]1/C=C/O[C@@]2(C)Oc3c(C)c(O)c4c(O)c(c(/C=N/N5CCN(C)CC5)c(O)c4c3C2=O)NC(=O)/C(C)=C\C=C\[C@H](C)[C@H](O)[C@@H](C)[C@@H](O)[C@@H](C)[C@H](OC(C)=O)[C@@H]1C [RIFAMPIN],MIC,Acinetobacter baumannii [18],1 µM
same,MIC,Klebsiella pneumoniae [19],16 µM
same,MIC,Escherichia coli [20],8 µM
same,MIC,Pseudomonas aeruginosa [21],32 µM
same,MIC,Staphylococcus aureus [22],128 µM
same,MIC,Staphylococcus aureus [23],128 µM
same,MIC,Staphylococcus aureus [24],1 µM
same,MIC,Staphylococcus aureus [25],1 µM
same,MIC,Staphylococcus aureus [26],4 µM
same,MIC,Enterococcus faecalis,1 µM
same,MIC,[27],1 µM
same,MIC,Bacillus subtilis,1 µM
same,MIC,Staphylococcus aureus [28],1 µM
same,MIC,Acinetobacter baumannii [29],16 µM
same,MIC,Acinetobacter baumannii [30],16 µM
same,MIC,Escherichia coli [31],16 µM
same,MIC,Escherichia coli [32],16 µM
same,MIC,Pseudomonas aeruginosa [33],128 µM
same,MIC,Pseudomonas aeruginosa [34],16 µM
same,fold change (FC),Staphylococcus aureus [35],8
same,fold change (FC),Staphylococcus aureus [36],512
same,fold change (FC),Escherichia coli [37],8
same,fold change (FC),Escherichia coli [38],64
